Assay results reported in EP2045247B1, “Compounds for the inhibition of histone deacetylase” (NatureWise Biotech & Medicals Corporation, priority 2007, dated 2009).

Tests used:
[1] = system: breast cancer MCF-7 cells; test: Inhibition of growth and change of morphology of MCF-7 cells; type: cell-based, human
Protocol: The breast cancer MCF-7 cells, were cultured in Dulbecco's modified Eagle's medium (DMEM; Gibco) supplemented with penicillin G, streptomycin sulphate, 0.5 mM of L-glutamine and 10% fetal bovine serum (FBS; Gibco) at 37 °C, 5% CO2 and 95% relative humidity. The cells were seeded at a density of 3×10^5 per well of 6-well plates. After 24 hours, the cells were treated with different concentrations of compound NBM-HD-1 and 4mM sodium butyrate being used as the positive control. The cells were observed after 48 hours and counted after 96 hours. […] In Fig. 8(A), after the cells were incubated with 2.5 µg/mL (Fig. 8(A)-b), 5 µg/mL (Fig. 8(A)-c) and 10 µg/mL (Fig. 8(A)-d) of NBM-HD-1 for 48 hours, the density of MCF-7 cells reduced dramatically in comparison with that of the control group (Fig. 8(A)-a). The morphology of the MCF-7 cells in the experimental group changed in comparison with that in the control group. […] The results of the cell counting (FIG. 8(B)) indicate that, similar to sodium butyrate, NBM-HD-1 inhibits cell growth.
MCF-7 cancer cells were seeded at a density of 3×10^5 per well in 6-well plates. After 24 hours, the cells were treated with different concentrations of compound NBM-HD-2 and 4mM sodium butyrate being used as the positive control. The cells were observed and counted after 72 hours. […] In Fig. 13(A), after the cells were incubated with 2.5 µg/mL (Fig. 13(A)-c), 5 µg/mL (Fig. 13(A)-d), 7.5 µg/mL (Fig. 13(A)-e) and 10 µg/mL (Fig. 13(A)-f) of NBM-HD-2 for 72 hours, the density of MCF-7 cells reduced dramatically in comparison with that of the control group (Fig. 13(A)-a). The morphology of the MCF-7 cells in the experimental group changed in comparison with that in the control group.
MCF-7 cancer cells were seeded at a density of 3×10^5 per well of 6-well plates. After 24 hours, the cells were treated with different concentrations of compound NBM-HD-3 and 4mM sodium butyrate, which was being used as the positive control. The cells were observed and counted after 72 hours. […] In Fig. 14(A), after the cells were incubated with 2.5 µg/mL (Fig. 14(A)-c), 5 µg/mL (Fig. 14(A)-d), 7.5 µg/mL (Fig. 14(A)-e) and 10 µg/mL (Fig. 14(A)-f) of NBM-HD-3 for 72 hours, the density of MCF-7 cells reduced dramatically in comparison with that of the control group (Fig. 14(A)-a). The morphology of the MCF-7 cells in the experimental group changed in comparison with that in the control group. […] The results of the cell counting (FIG. 14(B)) indicate that, similar to sodium butyrate, NBM-HD-3 inhibits cell growth.

[2] = system: human giloblastoma DBTRG-05MG cancer cells; test: Inhibition of growth and change of morphology of DBTRG-05MG cells; type: cell-based
Protocol: The human giloblastoma DBTRG-05MG cancer cells were cultured in RPMI medium 1640 (Gibco) supplemented with penicillin G, streptomycin sulphate, 0.5 mM of L-glutamine and 10% fetal bovine serum (FBS; Gibco), 100mh/L sodium pyruvate (Gibco), and 1% NEAA (Gibco) at 37 °C, 5% CO2 and 95% relative humidity. For these experiments, the cells were seeded at a density of 3×10^5 per well of 6-well plates. After 24 hours, the cells were treated with different concentrations of NBM-HD-1 and 4 mM sodium butyrate. The cells were observed and counted after 72 hours. […] In 05MG cells (Fig. 7(A)), after incubation with 2.5 µg/mL (Fig. 7(A)-b), 5 µg/mL (Fig. 7(A)-c) and 10 µg/mL (Fig.7(A)-d) of NBM-HD-1 for 72 hours, the density of the cells reduced dramatically in comparison with that of the control group (Fig. 7(A)-a). The 05MG cells in the experimental group also changed to become longer than those in the control group.

HDAC = HDAC activity assay (fluorometric kit) on nuclear extracts of treated C6 glioma cells; type: cell-based, rat; conditions: C6 glioma cells treated 24 hours, nuclear extract, fluorescence (Fig. 6)
Protocol: The C6 glioma cells were treated with different doses of NBM-HD-1 and sodium butyrate (SB). After 24 hours, the cells were harvested to extract the nuclear proteins by NucBuster™ Protein Extraction Kit (Novagen) as described by the manufacturer's instructions. These extracts were then used in HDAC Activity Assay Kit (Calbiochem) to analyze their HDAC (histone deacetylase) inhibition activities. The HDAC fluorometric substrate, which comprises an acetylated lysine side chain, was incubated with extracted nuclear protein first. Deacetylation of the substrate sensitized the substrate, so that, in the second step, treatment with the Lysine Developer produced a fluorophore. The fluorophore can easily be analyzed by using a fluorescence plate reader. […] Inhibition of HDAC has been implicated in the induction of differentiation in cancer cells. In this experiment, a well-known compound for HDAC inhibition, sodium butyrate, was used as a positive control.

cortical neurons = test: Neurite outgrowth of cortical neurons cultivated from fetal rat neural stem cells; type: cell-based, Wistar rat; conditions: 0.63 µg/mL
Protocol: The growth medium for the NSCs (neural stem cells) and cortical neurons was prepared by adding penicillin G, streptomycin and 0.5 mM of L-glutamine into a B-27 supplemented neurobasal medium (Gibco). The unborn fetus was taken out of the fetal sac in the abdominal cavity of a 17-day pregnant Wistar rat under anesthesia. The cerebral tissue was removed from the fetus and treated with 0.1 % trypsin solution at 25 °C for three minutes. After washing with PBS solution 3 times, the cells were dissociated by up and down mixing. The resulting solution was passed through a 70µm Nylon cell strainer (Falcon) in order to obtain the filtrate that contained cerebral cells. The filtrate was centrifuged at 1000 rpm for 10 minutes and the supernatant was aspirated. The resulting pellet was resuspended in the growth medium prepared as stated above. The resulting suspension contained NSCs.
The cells obtained from the suspension were cultivated in 6-well plates coated with 30 µg/ml of poly-D-lysine (Sigma) at the density of 75 cells/mm^2. The cells were cultured at 37 °C, 5% CO2 and 95% relative humidity. The growth media contained 0.63 µg/mL of NBM-HD-1 and the growth media with 1 µl of DMSO was used as the control. […]
After cultivation for 6 days, live cells were observed by microscope. The lengths of the neurites of the neurons in 6 different fields were measured and averaged. […]

Structure (SMILES): COc1cc2c(c(OC)c1CCC(C)(C)O)C(=O)C[C@@H](c1ccc(OC)c(OC)c1C/C=C(\C)CCCC(C)(C)O)O2 [NBM-HD-1]
- morphology of MCF-7 cells ([1]; 2.5, 5 and 10 µg/mL, 48 hours (Fig. 8(A))): change their morphology
- growth of MCF-7 cancer cells ([1]; NBM-HD-1 2.5, 5 and 10 µg/mL, sodium butyrate 4mM, observed after 48 hours, counted after 96 hours (Fig. 8)): can inhibit the growth of MCF-7 cancer cells in a dose-dependent manner
- morphology of 05MG cancer cells ([2]; 2.5, 5 and 10 µg/mL, 72 hours (Fig. 7(A))): change the morphology of 05MG cancer cells
- growth of 05MG cells ([2]; NBM-HD-1 2.5, 5 and 10 µg/mL, sodium butyrate 4 mM, 72 hours, density and cell counting (Fig. 7)): can inhibit the growth of 05MG cells in a dose-dependent manner
- HDAC activity (HDAC): significantly inhibits HDAC activity
- average length of the neurites (cortical neurons; 6 days, 6 different fields, versus DMSO control (Fig. 12(B))): greater than that of the control group
- neurite outgrowth (cortical neurons; cultivation for 6 days (Fig. 12)): could promote the neurite outgrowth
